Experimental data as given in patent US20260022142A1, “MACROCYCLIC IMMUNOMODULATORS” (Bristol-Myers Squibb Company, priority 2022, published 2026).
Bridge positions count the residues as written; N and C are the ends. Square brackets hold non-standard residues; d marks the D form. Peptide text beside a SMILES is read from it. * marks the point of attachment. Phe(4-COOH) = N[C@@H](Cc1ccc(C(=O)O)cc1)C(=O)O; Phe(3,4-F2) = N[C@@H](Cc1ccc(F)c(F)c1)C(=O)O; Bip = N[C@@H](Cc1ccc(-c2ccccc2)cc1)C(=O)O; Phe(3-Me) = Cc1cccc(C[C@H](N)C(=O)O)c1; Phe(4-F) = N[C@@H](Cc1ccc(F)cc1)C(=O)O; 1Nal = N[C@@H](Cc1cccc2ccccc12)C(=O)O; Bta = N[C@@H](Cc1csc2ccccc12)C(=O)O; Cha = N[C@@H](CC1CCCCC1)C(=O)O; Cit = NC(=O)NCCC[C@H](N)C(=O)O; Carboxymethyl = O=C(O)C*; Orn = NCCC[C@H](N)C(=O)O; Aun = NCCCCCCCCCCC(=O)O; Dab = NCC[C@H](N)C(=O)O; Dap = NC[C@H](N)C(=O)O; AEEA = NCCOCCOCC(=O)O

target: T1, PD-1/PD-L1 interaction (PE-labeled human PD-L1-Ig binding to Jurkat cell line over-expressing human PD-1) (Homo sapiens, UniProt Q15116); experiment: Jurkat-PD-1 Cell Binding High-Content Screening Assay (CBA); type: cell-based; settings: Jurkat cell line over-expressing human PD-1; PE-labeled PD-L1-Ig 20 nM final; read-out: Jurkat hPD1-PDL1 IC50
T1 construct: expressed in transfected cells; host or cells: Jurkat
How it was run: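 Human PD-L1-Ig carrying a covalent PE label on its Ig tag serves as the probe, applied at 20 nM final to compound-treated (2 h, 37° C) Jurkat-hPD-1 cells in medium with 10% fetal calf serum. After one hour, fixation and nuclear staining precede high-content image analysis.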

T1 sequence (Q15116 25-288): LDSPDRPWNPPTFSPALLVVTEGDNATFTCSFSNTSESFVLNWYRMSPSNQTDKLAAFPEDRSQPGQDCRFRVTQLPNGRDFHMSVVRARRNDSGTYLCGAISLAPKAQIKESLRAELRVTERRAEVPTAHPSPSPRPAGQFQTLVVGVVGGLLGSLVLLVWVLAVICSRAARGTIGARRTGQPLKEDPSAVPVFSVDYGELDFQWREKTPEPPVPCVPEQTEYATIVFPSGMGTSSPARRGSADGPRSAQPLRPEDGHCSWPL

| IC50 [nM] | Structure (SMILES) |
| --- | --- |
| 18 | Cc1cccc(C[C@@H]2NC(=O)[C@H](CC(=O)O)NC(=O)[C@H](Cc3ccc(OCC(=O)O)cc3)NC(=O)[C@H](CN)NC(=O)CSC[C@@H](C(=O)NCC(=O)N[C@@H](CCC(=O)O)C(=O)NCCCCCCCCCCC(=O)O)NC(=O)[C@H]([C@@H](C)O)NC(=O)[C@H](C(C)C)NC(=O)[C@H](CC3CCCCC3)NC(=O)[C@H](CCN)NC(=O)[C@@H](CC(C)C)NC(=O)[C@H](CCCN)NC(=O)[C@H](CCCNC(N)=O)NC(=O)[C@H](Cc3ccc(-c4ccccc4)cc3)NC(=O)[C@H](C(C)C)NC2=O)c1 [Compound 1292] ({CH2CO}-[Dap]Y(Carboxymethyl)D[Phe(3-Me)]V[Bip][Cit][Orn][dL][Dab][Cha]VTCGE[Aun]-OH; thioether N-14) |
| 19.1 | Cc1cccc(C[C@@H]2NC(=O)[C@H](CC(=O)O)NC(=O)[C@H](Cc3ccc(OCC(=O)O)cc3)NC(=O)[C@H]([C@@H](C)O)NC(=O)CSC[C@@H](C(=O)N[C@@H](CCCCN)C(=O)NCCCCCCCCCCC(=O)O)NC(=O)[C@H]([C@@H](C)O)NC(=O)[C@H](C(C)C)NC(=O)[C@H](CC3CCCCC3)NC(=O)[C@H](CCN)NC(=O)[C@@H](CC(C)C)NC(=O)[C@H](CCCN)NC(=O)[C@H](Cc3ccc(OCC(=O)O)cc3)NC(=O)[C@H](Cc3ccc(-c4ccccc4)cc3)NC(=O)[C@H](Cc3ccc(OCC(=O)O)cc3)NC2=O)c1 [Compound 1293] ({CH2CO}-TY(Carboxymethyl)D[Phe(3-Me)]Y(Carboxymethyl)[Bip]Y(Carboxymethyl)[Orn][dL][Dab][Cha]VTCK[Aun]-OH; thioether N-14) |
| 19.6 | CC(C)C[C@H]1NC(=O)[C@H](CCCN)NC(=O)[C@H](Cc2ccc(O)cc2)NC(=O)[C@H](Cc2ccc(-c3ccccc3)cc2)NC(=O)[C@H](C(C)C)NC(=O)[C@H](Cc2ccc(F)cc2)NC(=O)[C@H](CC(=O)O)NC(=O)[C@H](Cc2ccc(OCC(=O)O)cc2)NC(=O)[C@H](CN)NC(=O)CSC[C@@H](C(=O)N[C@@H](CCN)C(=O)NCCOCCOCC(=O)NCCCCCCCCCCC(=O)O)NC(=O)[C@H](CCCN)NC(=O)[C@H](C(C)C)NC(=O)[C@H](CC2CCCCC2)NC(=O)[C@H](CCN)NC1=O [Compound 1294] ({CH2CO}-[Dap]Y(Carboxymethyl)D[Phe(4-F)]V[Bip]Y[Orn][dL][Dab][Cha]V[Orn]C[Dab][AEEA][Aun]-OH; thioether N-14) |
| 22.2 | Cc1cccc(C[C@@H]2NC(=O)[C@H](CC(=O)O)NC(=O)[C@H](Cc3ccc(OCC(=O)O)cc3)NC(=O)[C@H](CN)NC(=O)CSC[C@@H](C(=O)NCC(=O)NCCCCCCCCCCC(=O)O)NC(=O)[C@H]([C@@H](C)O)NC(=O)[C@H](C(C)C)NC(=O)[C@H](CC3CCCCC3)NC(=O)[C@H](CCN)NC(=O)[C@@H](CC(C)C)NC(=O)[C@H](CCCN)NC(=O)[C@H](CCCNC(N)=O)NC(=O)[C@H](Cc3ccc(-c4ccccc4)cc3)NC(=O)[C@H](C(C)C)NC2=O)c1 [Compound 1295] ({CH2CO}-[Dap]Y(Carboxymethyl)D[Phe(3-Me)]V[Bip][Cit][Orn][dL][Dab][Cha]VTCG[Aun]-OH; thioether N-14) |
| 24 | Cc1cccc(C[C@@H]2NC(=O)[C@H](CC(=O)O)NC(=O)[C@H](Cc3ccc(OCC(=O)O)cc3)NC(=O)[C@H](CCCNC(=N)N)NC(=O)CSC[C@@H](C(=O)N[C@@H](CCCCN)C(=O)NCCCCCCCCCCC(=O)O)NC(=O)[C@H]([C@@H](C)O)NC(=O)[C@H](C(C)C)NC(=O)[C@H](CC3CCCCC3)NC(=O)[C@H](CCN)NC(=O)[C@@H](CC(C)C)NC(=O)[C@H](CCCN)NC(=O)[C@H](Cc3ccc(OCC(=O)O)cc3)NC(=O)[C@H](Cc3ccc(-c4ccccc4)cc3)NC(=O)[C@H](Cc3ccc(OCC(=O)O)cc3)NC2=O)c1 [Compound 1296] ({CH2CO}-RY(Carboxymethyl)D[Phe(3-Me)]Y(Carboxymethyl)[Bip]Y(Carboxymethyl)[Orn][dL][Dab][Cha]VTCK[Aun]-OH; thioether N-14) |
| 24.6 | CC(C)C[C@H]1NC(=O)[C@H](CCCN)NC(=O)[C@H](Cc2ccc(O)cc2)NC(=O)[C@H](Cc2ccc(-c3ccccc3)cc2)NC(=O)[C@H](C(C)C)NC(=O)[C@H](Cc2cccc3ccccc23)NC(=O)[C@H](CC(=O)O)NC(=O)[C@H](Cc2ccc(OCC(=O)O)cc2)NC(=O)[C@H](CN)NC(=O)CSC[C@@H](C(=O)N[C@@H](CCN)C(=O)NCCOCCOCC(=O)NCCCCCCCCCCC(=O)O)NC(=O)[C@H](CCCN)NC(=O)[C@H](C(C)C)NC(=O)[C@H](CC2CCCCC2)NC(=O)[C@H](CCN)NC1=O [Compound 1297] ({CH2CO}-[Dap]Y(Carboxymethyl)D[1Nal]V[Bip]Y[Orn][dL][Dab][Cha]V[Orn]C[Dab][AEEA][Aun]-OH; thioether N-14) |
| 28.8 | CC(C)C[C@H]1NC(=O)[C@H](CCCN)NC(=O)[C@H](Cc2ccc(O)cc2)NC(=O)[C@H](Cc2ccc(-c3ccccc3)cc2)NC(=O)[C@H](Cc2ccc(OCC(=O)O)cc2)NC(=O)[C@H](Cc2ccc(F)cc2)NC(=O)[C@H](CC(=O)O)NC(=O)[C@H](Cc2ccc(OCC(=O)O)cc2)NC(=O)[C@H](CN)NC(=O)CSC[C@@H](C(=O)N[C@@H](CCN)C(=O)NCCOCCOCC(=O)NCCCCCCCCCCC(=O)O)NC(=O)[C@H](CCCN)NC(=O)[C@H](C(C)C)NC(=O)[C@H](CC2CCCCC2)NC(=O)[C@H](CCN)NC1=O [Compound 1298] ({CH2CO}-[Dap]Y(Carboxymethyl)D[Phe(4-F)]Y(Carboxymethyl)[Bip]Y[Orn][dL][Dab][Cha]V[Orn]C[Dab][AEEA][Aun]-OH; thioether N-14) |
| 31.9 | CC(C)C[C@H]1NC(=O)[C@H](CCCN)NC(=O)[C@H](Cc2ccc(O)cc2)NC(=O)[C@H](Cc2ccc(-c3ccccc3)cc2)NC(=O)[C@H](C(C)C)NC(=O)[C@H](Cc2ccc(F)c(F)c2)NC(=O)[C@H](CC(=O)O)NC(=O)[C@H](Cc2ccc(OCC(=O)O)cc2)NC(=O)[C@H](CN)NC(=O)CSC[C@@H](C(=O)N[C@@H](CCN)C(=O)NCCOCCOCC(=O)NCCCCCCCCCCC(=O)O)NC(=O)[C@H](CCCN)NC(=O)[C@H](C(C)C)NC(=O)[C@H](CC2CCCCC2)NC(=O)[C@H](CCN)NC1=O [Compound 1301] ({CH2CO}-[Dap]Y(Carboxymethyl)D[Phe(3,4-F2)]V[Bip]Y[Orn][dL][Dab][Cha]V[Orn]C[Dab][AEEA][Aun]-OH; thioether N-14) |
| 31.9 | CC(C)C[C@H]1NC(=O)[C@H](CCCN)NC(=O)[C@H](Cc2ccc(O)cc2)NC(=O)[C@H](Cc2ccc(-c3ccccc3)cc2)NC(=O)[C@H](C(C)C)NC(=O)[C@H](Cc2ccc(O)cc2)NC(=O)[C@H](CC(=O)O)NC(=O)[C@H](Cc2ccc(OCC(=O)O)cc2)NC(=O)[C@H](CN)NC(=O)CSC[C@@H](C(=O)N[C@@H](CCN)C(=O)NCCOCCOCC(=O)NCCCCCCCCCCC(=O)O)NC(=O)[C@H](CCCN)NC(=O)[C@H](C(C)C)NC(=O)[C@H](CC2CCCCC2)NC(=O)[C@H](CCN)NC1=O [Compound 1302] ({CH2CO}-[Dap]Y(Carboxymethyl)DYV[Bip]Y[Orn][dL][Dab][Cha]V[Orn]C[Dab][AEEA][Aun]-OH; thioether N-14) |
| 32.2 | Cc1cccc(C[C@@H]2NC(=O)[C@H](CC(=O)O)NC(=O)[C@H](Cc3ccc(OCC(=O)O)cc3)NC(=O)[C@H]([C@@H](C)O)NC(=O)CSC[C@@H](C(=O)N[C@@H](CCCCN)C(=O)NCCCCCCCCCCC(=O)O)NC(=O)[C@H]([C@@H](C)O)NC(=O)[C@H](C(C)C)NC(=O)[C@H](CC3CCCCC3)NC(=O)[C@H](CCN)NC(=O)[C@@H](CC(C)C)NC(=O)[C@H](CCCN)NC(=O)[C@H](Cc3ccc(OCC(=O)O)cc3)NC(=O)[C@H](Cc3ccc(-c4ccccc4)cc3)NC(=O)[C@H](Cc3ccc(C(=O)O)cc3)NC2=O)c1 [Compound 1303] ({CH2CO}-TY(Carboxymethyl)D[Phe(3-Me)][Phe(4-COOH)][Bip]Y(Carboxymethyl)[Orn][dL][Dab][Cha]VTCK[Aun]-OH; thioether N-14) |
| 37.3 | CC(C)C[C@H]1NC(=O)[C@H](CCCN)NC(=O)[C@H](Cc2ccc(O)cc2)NC(=O)[C@H](Cc2ccc(-c3ccccc3)cc2)NC(=O)[C@H](C(C)C)NC(=O)[C@H](Cc2csc3ccccc23)NC(=O)[C@H](CC(=O)O)NC(=O)[C@H](Cc2ccc(OCC(=O)O)cc2)NC(=O)[C@H](CN)NC(=O)CSC[C@@H](C(=O)N[C@@H](CCN)C(=O)NCCOCCOCC(=O)NCCCCCCCCCCC(=O)O)NC(=O)[C@H](CCCN)NC(=O)[C@H](C(C)C)NC(=O)[C@H](CC2CCCCC2)NC(=O)[C@H](CCN)NC1=O [Compound 1304] ({CH2CO}-[Dap]Y(Carboxymethyl)D[Bta]V[Bip]Y[Orn][dL][Dab][Cha]V[Orn]C[Dab][AEEA][Aun]-OH; thioether N-14) |
| 43.4 | CC(C)C[C@H]1NC(=O)[C@H](CCCN)NC(=O)[C@H](Cc2ccc(O)cc2)NC(=O)[C@H](Cc2ccc(-c3ccccc3)cc2)NC(=O)[C@H](Cc2ccc(OCC(=O)O)cc2)NC(=O)[C@H](Cc2cccc3ccccc23)NC(=O)[C@H](CC(=O)O)NC(=O)[C@H](Cc2ccc(OCC(=O)O)cc2)NC(=O)[C@H](CN)NC(=O)CSC[C@@H](C(=O)N[C@@H](CCN)C(=O)NCCOCCOCC(=O)NCCCCCCCCCCC(=O)O)NC(=O)[C@H](CCCN)NC(=O)[C@H](C(C)C)NC(=O)[C@H](CC2CCCCC2)NC(=O)[C@H](CCN)NC1=O [Compound 1305] ({CH2CO}-[Dap]Y(Carboxymethyl)D[1Nal]Y(Carboxymethyl)[Bip]Y[Orn][dL][Dab][Cha]V[Orn]C[Dab][AEEA][Aun]-OH; thioether N-14) |
| 48.9 | CC(C)C[C@H]1NC(=O)[C@H](CCCN)NC(=O)[C@H](Cc2ccc(O)cc2)NC(=O)[C@H](Cc2ccc(-c3ccccc3)cc2)NC(=O)[C@H](Cc2ccc(OCC(=O)O)cc2)NC(=O)[C@H](Cc2c[nH]c3ccccc23)NC(=O)[C@H](CC(=O)O)NC(=O)[C@H](Cc2ccc(OCC(=O)O)cc2)NC(=O)[C@H](CN)NC(=O)CSC[C@@H](C(=O)N[C@@H](CCN)C(=O)NCCOCCOCC(=O)NCCCCCCCCCCC(=O)O)NC(=O)[C@H](CCCN)NC(=O)[C@H](C(C)C)NC(=O)[C@H](CC2CCCCC2)NC(=O)[C@H](CCN)NC1=O [Compound 1306] ({CH2CO}-[Dap]Y(Carboxymethyl)DWY(Carboxymethyl)[Bip]Y[Orn][dL][Dab][Cha]V[Orn]C[Dab][AEEA][Aun]-OH; thioether N-14) |
